According to the NIST ThermoML archive (doi:10.1016/j.jct.2011.01.014):

Experiment: xn = mol fraction of the nth substance listed
Conditions: 101 kPa, Liquid; for speed of sound: sound velocity cell; for mass density: Vibrating tube method

CC(=O)[O-].[NH3+]CCO [2-hydroxyethylammonium acetate] + CCO
Conditions | mass density, 298.15 K [kg/m3] | mass density, 300.65 K [kg/m3] | mass density, 303.15 K [kg/m3] | mass density, 305.65 K [kg/m3] | speed of sound, 295.65 K [m/s] | speed of sound, 298.15 K [m/s] | speed of sound, 300.65 K [m/s] | speed of sound, 303.15 K [m/s]
x1 = 0.0497 | 821.798 | 819.712 | 817.614 | 815.509 | – | 1186.5 | 1178.2 | 1170
x1 = 0.101 | 854.902 | 852.887 | 850.864 | 848.835 | – | 1225.5 | 1217.5 | 1209.5
x1 = 0.201 | 909.701 | 907.8 | 905.897 | 903.988 | – | 1296.4 | 1288.8 | 1281.2
x1 = 0.3009 | 956.936 | 955.132 | 953.327 | 951.519 | – | 1381.3 | 1374.2 | 1367
x1 = 0.4057 | 999.015 | 997.306 | 995.593 | 993.881 | – | 1442.3 | 1435.3 | 1428.4
x1 = 0.4946 | 1029.72 | 1028.07 | 1026.43 | 1024.78 | – | 1502.9 | 1496.2 | 1489.6
x1 = 0.603 | 1062.53 | 1060.96 | 1059.37 | 1057.78 | 1582 | 1575.6 | 1569.2 | 1562.8
x1 = 0.6765 | 1082.31 | 1080.8 | 1079.28 | 1077.76 | 1626.8 | 1620.4 | 1614.2 | 1608
x1 = 0.7918 | 1110.26 | 1108.76 | 1107.26 | 1105.75 | 1686.5 | 1679.8 | 1673.3 | 1667
x1 = 0.8825 | 1129.61 | 1128.15 | 1126.69 | 1125.23 | 1734.5 | 1727.5 | 1720.9 | 1714.5
x1 = 0.9539 | 1142.5 | 1141.04 | 1139.62 | 1138.2 | 1778 | 1769.9 | 1762.4 | 1755.4
x1 = 1 | 1149.04 | 1147.63 | 1146.22 | 1144.8 | 1796.8 | 1790.7 | 1784.8 | 1779
